PMC8294059, “Identification and Immune Assessment of T Cell Epitopes in Five Plasmodium falciparum Blood Stage Antigens to Facilitate Vaccine Candidate Selection and Optimization” (Frontiers in Immunology, 2021)
Where two headings read alike, the source gives them in different places. Where a SMILES comes first, the peptide text is derived from it.

Key:
HLA-DRB1*1501 = target: T1, HLA-DRB1*1501 (Homo sapiens, UniProt P01903+P01911); assay: biochemical; assay type: binding
T1 construct: purchased
Method: (§1) The binding assay conducted by EpiVax yields an indirect measure of peptide-MHC affinity as it utilizes a competition assay format per the methodology described in Steere et al. ([35]). […] Post incubation, the mixtures are moved to a 96-well plate coated with anti-HLA-DR antibody to capture HLA-peptide complexes. Time-resolved fluorescence measurement of the bound labeled reference peptide complex present in each mixture is detected with a europium-linked probe via fluorescent spectrophotometry using a SpectraMax M5 system. HLA binding affinity of each test peptide is expressed as the percent inhibition of reference peptide binding. Percent inhibition values (across the test peptide titration range) are used to calculate the half maximal inhibitory concentration (IC50) of each test peptide. For these studies, test peptides were assessed using a range of final concentrations from 100,000 nM to 100 nM. The panel of commercially-available HLA-DRB1 allele monomers used includes: *0101, *0301, *0401, *0701, *0801, *1101, *1301 and *1501. EpiVax established HLA-DRB1 binding affinity cutoffs were used to rank the IC50 values.
(§2) In vitro HLA binding assays (step 2 of workflow shown in Figure 1 ) were carried out with the synthesized peptides to verify the EpiMatrix outputs and provide a measure of accuracy for comparing in silico-predicted HLA-DRB1 allele binding to laboratory assessments of HLA-DRB1 allele binding. These assessments were conducted using a competition assay format whereby IC50 values were calculated based on the ability of the test peptide to compete with a labeled, high binding affinity reference peptide for HLA-DRB1 molecule binding. Sequences for the high affinity reference peptides and the negative control peptide, known not to bind any of the HLA-DRB1 molecules, are provided in Table S18 .

HLA-DRB1*1301 = HLA-DRB1*1301 (Homo sapiens, UniProt P01903+P01911, A100E/A169T/K41T/L162R/M171V/P40S/Q125H/Q178H/Q39Y/Q99D/R42S/S66N/T262R/W38E/Y61H); assay: biochemical; assay type: binding; conditions: read-out: DRB1*1301 IC50
Method: as §1, §2

HLA-DRB1*0701 = HLA-DRB1*0701 (Homo sapiens, UniProt P01903+P01911, A100R/A102G/A103Q/D57E/D86V/E43K/F76Y/K127E/L162R/M171V/P40G/Q125H/Q99D/R33Q/R42Y/R54Q/S133A/S66F/T210M/V115G/Y107V/Y59L/Y89S); assay: biochemical; assay type: binding
Method: as §1, §2

HLA-DRB1*0101 = target: T2, HLA-DRB1*0101 (Homo sapiens, UniProt P01903+P01911, A100R/D57E/F55L/F60I/F76Y/I96L/L162R/M171V/P40L/Q125E/R42F/V115G/Y59C); assay: biochemical; assay type: binding
T2 construct: purchased
Method: as §1, §2

HLA-DRB1*0801 = HLA-DRB1*0801 (Homo sapiens, UniProt P01903+P01911, A100R/A103L/A169T/D86S/F76Y/H45Y/I96F/K41T/L162R/M171V/P40S/Q125H/Q178H/Q39Y/Q99D/R218S/R42G/S66Y/V115G/W38E); assay: biochemical; assay type: binding
Method: as §1, §2

HLA-A*0201 = HLA-A*0201 (Homo sapiens, UniProt P04439, D140Y/D185E/D98H/E176V/E277Q/G131W/G231S/I119V/I121R/I166T/I218V/L300P/L318F/N151K/N90K/P208A/P217A/Q86G/Q94H/R138H/R169H/T345S); assay: In vitro class I HLA binding assay (fluorescence polarization competition); conditions: allele A*0201; fluorescence polarization competition; read-out: IC50 (nM), in vitro HLA binding affinity
Method: A cell-free class I HLA binding assay that allows for in vitro quantification of peptide-HLA binding affinity in a competition format was used. In this assay, a fluorescently labeled, high binding, control peptide is loaded onto 384-well ½-area plates along with unlabeled experimental peptides. To remove endogenous peptides and render the HLA A and B molecules receptive to binding, HLA is heated at 53°C for 15 minutes and immediately added to the assay. The mixture is then allowed to stand for three days. Once the mixture has reached steady equilibrium (at 72 hours), displacement of the high binding control peptide is measured through fluorescence polarization. Binding of experimental peptides is expressed as the percent inhibition of the labeled control peptide (experimental fluorescence / control fluorescence, multiplied by 100). The percent inhibition values for each experimental peptide (across a range of molar concentrations) are used to calculate the concentration which inhibits 50% of the labeled control peptide’s specific binding. This value is referred to as the peptide’s IC50.

HLA-DRB1*1101 = HLA-DRB1*1101 (Homo sapiens, UniProt P01903+P01911, A100R/A169T/A87E/I96F/K41T/L162R/M171V/P40S/Q125H/Q178H/Q39Y/Q99D/R42S/S66Y/T262R/V115G/W38E); assay: biochemical; assay type: binding; conditions: binding inhibition assay; NB = non-binder (no dose-dependent inhibition); read-out: DRB1*1101 IC50
HLA-DRB1*1101, sequence (P01903 26-254 limits assumed, other chains not shown): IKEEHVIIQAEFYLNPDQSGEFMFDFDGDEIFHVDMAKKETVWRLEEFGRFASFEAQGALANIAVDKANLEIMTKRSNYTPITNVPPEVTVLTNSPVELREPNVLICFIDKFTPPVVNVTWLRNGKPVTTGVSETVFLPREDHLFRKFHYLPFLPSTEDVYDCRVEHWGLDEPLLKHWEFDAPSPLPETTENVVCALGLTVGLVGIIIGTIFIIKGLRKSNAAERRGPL
Method: as §1, §2

[1] = binding inhibition assay, NB = non-binder (no dose-dependent inhibition), read-out: DRB1*1501 IC50
[2] = binding inhibition assay, NB = non-binder (no dose-dependent inhibition)
[3] = binding inhibition assay, NB = non-binder (no dose-dependent inhibition), read-out: DRB1*0701 IC50
[4] = binding inhibition assay, NB = non-binder (no dose-dependent inhibition), read-out: DRB1*0101 IC50
[5] = binding inhibition assay, NB = non-binder (no dose-dependent inhibition), read-out: DRB1*0801 IC50

Structure (SMILES) | IC50 (HLA-DRB1*1501; [1]) [µM] | IC50 (HLA-DRB1*1301; [2]) [µM] | IC50 (HLA-DRB1*0701; [3]) [µM] | IC50 (HLA-DRB1*0101; [4]) [µM] | IC50 (HLA-DRB1*1101) [µM] | IC50 (HLA-DRB1*0801; [5]) [µM] | also measured
CC[C@H](C)[C@H](NC(=O)[C@H](CCSC)NC(=O)[C@H](CO)NC(=O)[C@H](C)N)C(=O)N[C@@H](CCCCN)C(=O)N[C@@H](CO)C(=O)N[C@@H](C)C(=O)N[C@@H](Cc1ccccc1)C(=O)N[C@@H](CC(C)C)C(=O)N1CCC[C@H]1C(=O)N[C@H](C(=O)NCC(=O)N[C@@H](C)C(=O)N[C@@H](Cc1ccccc1)C(=O)N[C@@H](CCCCN)C(N)=O)[C@@H](C)O [AMA1_006B] (H-ASMIKSAFLPTGAFK-NH2) | 14.5 | > 100 | 1.52 | 3.22 |  |  | 
CC[C@H](C)[C@H](NC(=O)[C@H](CCSC)NC(=O)[C@H](CO)NC(=O)[C@H](C)NC(=O)[C@H](CC(N)=O)NC(=O)[C@H](CCCCN)NC(=O)[C@H](CC(N)=O)NC(=O)[C@H](CCCCN)NC(=O)[C@H](Cc1ccccc1)NC(=O)CNC(=O)[C@H](CCC(=O)O)NC(=O)[C@H](CCCCN)NC(C)=O)C(=O)N[C@@H](CCCCN)C(=O)N[C@@H](CO)C(=O)N[C@@H](C)C(=O)N[C@@H](Cc1ccccc1)C(=O)N[C@@H](CC(C)C)C(=O)N1CCC[C@H]1C(=O)N[C@H](C(=O)NCC(=O)N[C@@H](C)C(=O)N[C@@H](Cc1ccccc1)C(=O)N[C@@H](CCCCN)C(N)=O)[C@@H](C)O [AMA1_006C] (Ac-KEGFKNKNASMIKSAFLPTGAFK-NH2) |  |  |  |  |  |  | IC50 (HLA-DRB1*0801): 50.4 µM; IC50 (HLA-DRB1*1501): 2.04 µM; IC50 (HLA-DRB1*1301): > 100 µM; IC50 (HLA-DRB1*0701): 1.29 µM; IC50 (HLA-DRB1*0101): 1.2 µM
CC[C@H](C)[C@H](NC(=O)[C@H](CO)NC(=O)[C@H](CO)NC(=O)[C@H](Cc1ccccc1)NC(=O)[C@H](CC(C)C)NC(=O)[C@@H](N)CC(N)=O)C(=O)N[C@@H](CCC(=O)O)C(=O)N[C@H](C(=O)N[C@H](C(=O)O)C(C)C)[C@@H](C)CC [AMA1_092] (H-NLFSSIEIV-OH) |  |  |  |  |  |  | IC50 (HLA-A*0201): 1550 nM
CSCC[C@H](NC(=O)[C@H](Cc1ccc(O)cc1)NC(=O)[C@H](CCC(=O)O)NC(=O)[C@@H](NC(=O)[C@H](Cc1c[nH]c2ccccc12)NC(=O)[C@@H]1CCCN1C(=O)[C@H](CC(N)=O)NC(=O)CNC(=O)[C@H](CCSC)NC(=O)[C@@H](N)Cc1ccc(O)cc1)[C@@H](C)O)C(=O)O [AMA1_105] (H-YMGNPWTEYM-OH) |  |  |  |  |  |  | IC50 (HLA-A*0201): 21400 nM
CC[C@H](C)[C@H](NC(=O)[C@H](CC(N)=O)NC(=O)[C@H](CC(N)=O)NC(=O)[C@H](CCCCN)NC(=O)[C@H](Cc1c[nH]cn1)NC(=O)[C@H](CCC(=O)O)NC(=O)[C@H](CO)NC(=O)[C@H](CC(C)C)NC(=O)[C@H](CCSC)NC(=O)[C@H](C)NC(=O)[C@H](CCC(=O)O)NC(=O)[C@H](Cc1c[nH]c2ccccc12)NC(=O)[C@H](CC(C)C)NC(=O)[C@H](CCCCN)NC(=O)[C@H](CCC(=O)O)NC(C)=O)C(=O)N[C@@H](CC(N)=O)C(=O)N[C@@H](CC(N)=O)C(N)=O [EBA175_008] (Ac-EKLWEAMLSEHKNNINN-NH2) | 80.6 | > 100 |  | 5.61 | > 100 |  | 
CC[C@H](C)[C@H](NC(C)=O)C(=O)N[C@@H](CC(C)C)C(=O)N[C@@H](C)C(=O)N[C@H](C(=O)N[C@@H](C)C(=O)N[C@H](C(=O)N[C@@H](Cc1ccc(O)cc1)C(=O)N[C@@H](CCC(=O)O)C(=O)N[C@@H](CO)C(=O)N[C@@H](CCCNC(=N)N)C(=O)N[C@H](C(=O)N[C@@H](CC(C)C)C(=O)N[C@@H](CCCCN)C(=O)N[C@@H](CCCNC(=N)N)C(=O)N[C@@H](CCCCN)C(=O)N[C@@H](Cc1ccc(O)cc1)C(=O)N[C@@H](CCCCN)C(=O)N[C@@H](CC(N)=O)C(=O)N[C@@H](CCCCN)C(=O)N[C@@H](CC(=O)O)C(=O)N[C@@H](CC(=O)O)C(=O)N[C@@H](CCCCN)C(=O)N[C@@H](CCC(=O)O)C(N)=O)[C@@H](C)CC)[C@@H](C)CC)[C@@H](C)CC [EBA175_010] (Ac-ILAIAIYESRILKRKYKNKDDKE-NH2) | 0.035 | 4.41 | 6.27 | 0.27 | 44.2 | 17.6 | 
CC[C@H](C)[C@H](NC(=O)[C@H](CO)NC(=O)[C@H](CCCCN)NC(=O)[C@H](Cc1ccccc1)NC(=O)[C@H](CCC(=O)O)NC(=O)[C@H](CO)NC(=O)[C@H](Cc1ccc(O)cc1)NC(=O)[C@H](CCSC)NC(=O)[C@H](CCCCN)NC(=O)[C@H](Cc1ccc(O)cc1)NC(=O)[C@H](CC(N)=O)NC(=O)[C@H](CC(N)=O)NC(=O)CNC(=O)[C@H](CCCCN)NC(=O)[C@H](CCC(N)=O)NC(=O)[C@H](Cc1ccc(O)cc1)NC(=O)[C@H](CCC(=O)O)NC(=O)[C@H](CCC(N)=O)NC(=O)[C@H](Cc1ccc(O)cc1)NC(C)=O)C(=O)N[C@@H](CCCCN)C(N)=O [EBA175_012] (Ac-YQEYQKGNNYKMYSEFKSIK-NH2) | 29.4 |  | 14 | 0.226 |  | 33.2 | 
CC[C@H](C)[C@H](NC(=O)[C@H](CC(C)C)NC(=O)[C@H](CCCCN)NC(=O)[C@H](CCCCN)NC(=O)[C@H](CCCCN)NC(=O)[C@H](CCCCN)NC(=O)[C@@H](NC(=O)[C@H](CC(N)=O)NC(=O)[C@H](Cc1ccc(O)cc1)NC(=O)[C@H](CCC(=O)O)NC(=O)[C@H](CC(=O)O)NC(C)=O)[C@@H](C)O)C(=O)N[C@@H](CCCCN)C(=O)N[C@@H](CS)C(=O)N[C@H](C(=O)N[C@@H](CCCCN)C(=O)N[C@@H](CC(N)=O)C(=O)N[C@@H](Cc1c[nH]cn1)C(=O)N[C@@H](CCC(=O)O)C(=O)N[C@@H](CC(N)=O)C(=O)N[C@@H](CC(=O)O)C(=O)N[C@@H](Cc1ccccc1)C(=O)N[C@@H](CC(N)=O)C(N)=O)[C@@H](C)CC [RH5_008] (Ac-DEYNTKKKKLIKCIKNHENDFN-NH2) | 5.14 |  |  | 1 |  | 2.6 | 
CC[C@H](C)[C@H](NC(=O)[C@H](Cc1ccc(O)cc1)NC(=O)[C@H](CCC(=O)O)NC(=O)[C@H](CC(=O)O)NC(=O)[C@H](Cc1ccc(O)cc1)NC(C)=O)C(=O)N[C@@H](Cc1c[nH]cn1)C(=O)N[C@@H](CCCCN)C(=O)N[C@@H](CC(C)C)C(=O)N[C@H](C(=O)N[C@@H](CC(C)C)C(=O)N[C@@H](CO)C(=O)N[C@H](C(=O)N[C@@H](CCCCN)C(=O)N[C@@H](CO)C(=O)N[C@@H](CCCCN)C(=O)N[C@@H](CC(N)=O)C(=O)N[C@@H](CC(C)C)C(=O)N[C@@H](CC(N)=O)C(=O)N[C@@H](CCCCN)C(=O)N[C@@H](CC(=O)O)C(=O)N[C@@H](CC(C)C)C(=O)N[C@@H](CO)C(N)=O)C(C)C)[C@@H](C)CC [RH5_009] (Ac-YDEYIHKLILSVKSKNLNKDLS-NH2) | 0.01 | 88.8 | 0.381 | 0.043 | 10.5 | 6.46 | 
